Results from patent US9249147B2, “Tyrosine kinase inhibitors” (CHEMBRIDGE CORPORATION, priority 2008, dated 2016).

Legend:
Format in all cases: biochemical
IGF1R = biological target: T1, IGF1R (Homo sapiens, UniProt P08069); assay: IGF1R kinase assay; conditions: Table 1; read-out: IGF1R IC50
T1 construct: 6×His- or GST-tagged kinase domain fragments of the corresponding RTKs expressed in baculovirus system; host or cells: baculovirus system
Description: (§1) To determine inhibition of several tyrosine kinases, such as IGF1R, InsR, Alk, TrkA and Jak2, kinase assays are conducted using either Kinase-Glo (Promega) or AlphaScreen (PerkinElmer) kinase assay platforms. The Kinase-Glo Luminescent Kinase Assay is a homogeneous method for measuring kinase activity by determining the amount of ATP remaining after a kinase reaction. The luminescent signal is proportional to the amount of ATP and inversely proportional to the amount of kinase activity. Tyrosine kinase PT66 AlphaScreen Assay is a high-sensitivity homogeneous, anti-phosphotyrosine antibody-mediated luminescent proximity method measuring incorporation of phosphate in synthetic poly(Glu-Tyr) substrate. The kinase preparations used consist of purified recombinant, 6×His- or GST-tagged kinase domain fragments of the corresponding RTKs expressed in baculovirus system.
(§2) Compounds with a range of concentrations 40 μM, 20 μM, 10 μM, 5 μM, 2.5 μM, 1.25 μM, 0.625 μM, 0.3125 μM, 0.15625 μM and 0.078125 μM were incubated with NPM-ALK, which was produced in insect cells as a 6×HIS-tagged fusion protein and purified using nickel-charged resin chromatography, for 30 minutes at RT in the presence of 10 μM ATP and 7.0 ng biotinylated poly-GT. A 1:1 mixture of […] and donor beads was then added to the reaction and incubated for an additional 60 minutes at RT. The assay was conducted on a MultiPROBE liquid handling workstation (PerkinElmer) in a 384-well plate format with a total reaction volume of 40 μL per well. Working stocks of all compounds were dissolved in 100% DMSO and serial dilutions of the compounds were performed using kinase buffer (50 mM Tris-HCl (pH 7.5), 5 mM MgCl2, 5 mM MnCl2, 2 mM DTT (added freshly before use), 0.01% Tween-20) containing 5% DMSO. […] Data were collected as optical readings at 520-680 nm on a Fusion™ microplate analyzer (PerkinElmer), and IC50 and Ki values calculated using PRISM3.0 software (GraphPad Software, Inc., San Diego, Calif.). The same assay was also used with minor modifications to assess the IC50 and Ki values for selected compounds against five other tyrosine kinases (IRK, IGF1R, Flt3, Abl, Src), all of which were purchased from commercial vendors. PolyGT-Biotin was bought from CIS Biointernational Cat. #61GT0BLD; ATP—from Sigma Cat. # A7699; sodium orthovanadate—from Sigma Cat. #S-6508; phosphotyrosine (PT66) assay kit from PerkinElmer Cat. #6760602M; automated workstation tips (20 μL): PerkinElmer Cat. #6000657; and OptiPlate-384 (white)—from PerkinElmer Cat. #6007299.

IRK = biological target: T2, IRK (Homo sapiens, UniProt P06213); assay: IRK (insulin receptor kinase) assay; conditions: Table 1; read-out: IRK IC50
T2 construct: 6×His- or GST-tagged kinase domain fragments of the corresponding RTKs expressed in baculovirus system; host or cells: baculovirus system
T2 sequence (P06213 1023-1298 limits assumed): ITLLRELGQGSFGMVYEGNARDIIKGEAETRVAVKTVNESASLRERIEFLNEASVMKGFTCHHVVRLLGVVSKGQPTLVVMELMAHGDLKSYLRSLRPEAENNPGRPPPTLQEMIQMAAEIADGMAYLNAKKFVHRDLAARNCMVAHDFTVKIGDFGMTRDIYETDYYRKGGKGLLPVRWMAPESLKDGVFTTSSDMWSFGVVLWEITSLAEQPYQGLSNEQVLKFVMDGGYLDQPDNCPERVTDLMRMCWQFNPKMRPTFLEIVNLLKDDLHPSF
Description: as §1, §2

ALK = ALK (Homo sapiens, UniProt Q9UM73); assay: ALK kinase assay (Kinase-Glo / AlphaScreen, purified NPM-ALK); design: fused to the complete intracytoplasmic portion of ALK containing the functional tyrosine kinase domain; 6xHis; made in house; host or cells: insect cells; the other entry of the earlier key: NPM1 (P06748, Nucleophosmin); conditions: Table 1; read-out: ALK IC50
ALK, sequence (Q9UM73 with tags, fused parts or gaps): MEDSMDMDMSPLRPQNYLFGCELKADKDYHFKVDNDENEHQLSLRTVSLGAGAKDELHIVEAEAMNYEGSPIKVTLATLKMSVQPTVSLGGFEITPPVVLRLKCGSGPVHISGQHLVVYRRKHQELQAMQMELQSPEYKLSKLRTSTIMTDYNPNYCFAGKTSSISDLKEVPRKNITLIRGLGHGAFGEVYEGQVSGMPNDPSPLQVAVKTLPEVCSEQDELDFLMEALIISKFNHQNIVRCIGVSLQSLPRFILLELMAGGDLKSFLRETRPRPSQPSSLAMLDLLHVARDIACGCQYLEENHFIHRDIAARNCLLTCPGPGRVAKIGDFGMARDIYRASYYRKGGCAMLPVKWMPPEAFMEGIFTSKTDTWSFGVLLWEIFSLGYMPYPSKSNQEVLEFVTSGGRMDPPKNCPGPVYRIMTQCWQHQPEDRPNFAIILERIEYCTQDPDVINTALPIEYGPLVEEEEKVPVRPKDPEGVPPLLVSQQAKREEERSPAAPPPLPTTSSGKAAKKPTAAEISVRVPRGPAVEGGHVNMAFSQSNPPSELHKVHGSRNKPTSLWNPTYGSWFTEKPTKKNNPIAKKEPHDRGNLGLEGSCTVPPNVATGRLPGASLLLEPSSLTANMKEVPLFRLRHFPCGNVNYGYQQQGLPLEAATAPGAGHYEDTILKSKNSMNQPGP

T1 sequence (P08069 999-1274 limits assumed): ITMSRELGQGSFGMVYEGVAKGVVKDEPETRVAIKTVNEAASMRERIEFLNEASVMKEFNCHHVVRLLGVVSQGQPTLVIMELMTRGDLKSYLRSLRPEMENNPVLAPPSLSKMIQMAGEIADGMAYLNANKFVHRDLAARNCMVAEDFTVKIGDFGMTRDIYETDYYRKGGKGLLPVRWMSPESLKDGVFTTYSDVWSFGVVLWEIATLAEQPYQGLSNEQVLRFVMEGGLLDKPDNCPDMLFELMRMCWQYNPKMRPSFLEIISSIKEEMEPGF

| Compound | IC50 (IGF1R) [nM] | IC50 (IRK) [nM] | IC50 (ALK) [nM] |
| --- | --- | --- | --- |
| CC(Cc1cccs1)Nc1cc[nH]c(=O)c1-c1nc2cc3c(cc2[nH]1)C(=O)N(CCCN1CCCC1)C3=O (centres unmarked) | > 1000 | > 1000 | 100 to 250 |
| Cc1cc(CC(C)Nc2cc[nH]c(=O)c2-c2nc3cc4c(cc3[nH]2)C(=O)N(CCCN2CCCC2)C4)sc1C (centres unmarked) | 250 to 1000 |  | > 1000 |
| Cc1cc(C)c(CC(C)Nc2cc[nH]c(=O)c2-c2nc3cc4c(cc3[nH]2)C(=O)N(CCCN2CCCC2)C4)s1 (centres unmarked) | 100 to 250 |  | > 1000 |
| CC(Cc1cc2ccccc2s1)Nc1cc[nH]c(=O)c1-c1nc2cc3c(cc2[nH]1)C(=O)N(CCCN1CCCC1)C3 (centres unmarked) | > 1000 |  | > 1000 |
| CCc1ccc(CC(C)Nc2cc[nH]c(=O)c2-c2nc3cc4c(cc3[nH]2)C(=O)N(CCCN2CCCC2)C4)s1 (centres unmarked) | > 1000 |  | > 1000 |
| COc1ccc(-c2ccc(CC(C)Nc3cc[nH]c(=O)c3-c3nc4cc5c(cc4[nH]3)C(=O)N(CCCN3CCCC3)C5)s2)cc1 (centres unmarked) | > 1000 |  | > 1000 |
| CC(Cc1ccc(-c2ccccc2)s1)Nc1cc[nH]c(=O)c1-c1nc2cc3c(cc2[nH]1)C(=O)N(CCCN1CCCC1)C3 (centres unmarked) | > 1000 |  | > 1000 |
| CC(Cc1ccc(Cl)s1)Nc1cc[nH]c(=O)c1-c1nc2cc3c(cc2[nH]1)C(=O)N(CCCN1CCCC1)C3 (centres unmarked) | 250 to 1000 |  | 250 to 1000 |
| COc1ccsc1C[C@H](C)Nc1cc[nH]c(=O)c1-c1nc2cc3c(cc2[nH]1)CN(CCCN1CCCC1)C3=O | 250 to 1000 |  | 250 to 1000 |
| C[C@H](Nc1cc[nH]c(=O)c1-c1nc2cc3c(cc2[nH]1)C(=O)N(CCCN1CCCC1)C3=O)[C@H](O)c1ccccc1 | 250 to 1000 |  | 100 to 250 |
| C[C@@H](Cc1cccs1)Nc1cc[nH]c(=O)c1-c1nc2cc3c(cc2[nH]1)C(=O)N(CCN1CCCC1)C3=O | 250 to 1000 |  | 100 to 250 |
| C[C@@H](Cc1cccs1)Nc1cc[nH]c(=O)c1-c1nc2cc3c(cc2[nH]1)C(=O)N(CCCN1CCCC1)C3=O | > 1000 |  | 100 to 250 |
| C[C@@H](Cc1cccs1)Nc1cc[nH]c(=O)c1-c1nc2cc3c(cc2[nH]1)C(=O)N(CCCCN1CCCC1)C3 | > 1000 |  | 100 to 250 |
| C[C@@H](Cc1sccc1C(F)(F)F)Nc1cc[nH]c(=O)c1-c1nc2cc3c(cc2[nH]1)CN(CCN1CCCC1)C3=O | 250 to 1000 |  | 10 to 100 |
| Cc1ccsc1C[C@H](C)Nc1cc[nH]c(=O)c1-c1nc2cc3c(cc2[nH]1)CN(CCN1CCC[C@@H]1C)C3=O | 250 to 1000 |  | 100 to 250 |
| Cc1ccsc1C[C@H](C)Nc1cc[nH]c(=O)c1-c1nc2cc3c(cc2[nH]1)C(=O)N(CC(C)CN1CCCC1)C3 (some centres unmarked) | 250 to 1000 |  | 10 to 100 |
| Cc1cc(F)ccc1C[C@H](C)Nc1cc[nH]c(=O)c1-c1nc2cc3c(cc2[nH]1)C(=O)N(CCN1CCCC1)C3 | > 1000 | 250 to 1000 | 10 to 100 |
| Cc1ccc(F)cc1C[C@H](C)Nc1cc[nH]c(=O)c1-c1nc2cc3c(cc2[nH]1)C(=O)N(CCN(C)C)C3=O | 100 to 250 | > 1000 | 100 to 250 |
| Cc1ccc(F)cc1C[C@H](C)Nc1cc[nH]c(=O)c1-c1nc2cc3c(cc2[nH]1)CNC3=O | 250 to 1000 | > 1000 | 10 to 100 |

| Compound | IC50 (IGF1R) [nM] | IC50 (IRK) [nM] | IC50 (ALK) [nM] |
| --- | --- | --- | --- |
| COc1ccc(F)cc1C[C@H](C)Nc1cc[nH]c(=O)c1-c1nc2cc3c(cc2[nH]1)CN(CCN1CCCC1)C3=O | 100 to 250 | 250 to 1000 | 10 to 100 |
| COc1ccc(F)cc1C[C@H](C)Nc1cc[nH]c(=O)c1-c1nc2cc3c(cc2[nH]1)CN(CCN(C)C)C3=O | 100 to 250 | 250 to 1000 | 10 to 100 |
| Cc1ccc(F)cc1C[C@H](C)Nc1cc[nH]c(=O)c1-c1nc2cc3c(cc2[nH]1)CN(CCN1CCOCC1)C3=O | 100 to 250 | > 1000 | 100 to 250 |
| COc1ccc(F)cc1C[C@H](C)Nc1cc[nH]c(=O)c1-c1nc2cc3c(cc2[nH]1)CN(CCN1CCOCC1)C3=O | 100 to 250 | > 1000 | 100 to 250 |
| C[C@@H](Cc1cc(F)ccc1Cl)Nc1cc[nH]c(=O)c1-c1nc2cc3c(cc2[nH]1)CN(CCN1CCCC1)C3=O | 250 to 1000 | 250 to 1000 | 100 to 250 |
| Cc1ccc(C(F)(F)F)cc1C[C@H](C)Nc1cc[nH]c(=O)c1-c1nc2cc3c(cc2[nH]1)CN(CCN(C)C)C3=O | 100 to 250 | 250 to 1000 | 250 to 1000 |
| Cc1ccc(N(C)C)cc1C[C@H](C)Nc1cc[nH]c(=O)c1-c1nc2cc3c(cc2[nH]1)CN(CCN1CCCC1)C3=O | > 1000 | > 1000 | > 1000 |
| Cc1ccc(C(F)(F)F)cc1C[C@H](C)Nc1cc[nH]c(=O)c1-c1nc2cc3c(cc2[nH]1)CN(CCN1CCCC1)C3=O | > 1000 | 250 to 1000 | > 1000 |
| C[C@@H](Cc1cc(F)cc(F)c1F)Nc1cc[nH]c(=O)c1-c1nc2cc3c(cc2[nH]1)CN(CCN1CCOCC1)C3=O | 250 to 1000 | > 1000 | 10 to 100 |
| Cc1ccc(C(F)(F)F)cc1C[C@H](C)Nc1cc[nH]c(=O)c1-c1nc2cc3c(cc2[nH]1)CN(CCN1CCOCC1)C3=O | > 1000 | > 1000 | 250 to 1000 |
| C[C@@H](Cc1ccccc1Cl)Nc1cc[nH]c(=O)c1-c1nc2cc3c(cc2[nH]1)CN(CCN1CCCC1)C3=O | > 1000 | 100 to 250 | 250 to 1000 |
| Cc1ccc(Cl)cc1C[C@H](C)Nc1cc[nH]c(=O)c1-c1nc2cc3c(cc2[nH]1)CN(CCN1CCCC1)C3=O | > 1000 | 100 to 250 | 250 to 1000 |
| COc1ccc(C)c(C[C@H](C)Nc2cc[nH]c(=O)c2-c2nc3cc4c(cc3[nH]2)CN(CCN2CCCC2)C4=O)c1 | > 1000 | 250 to 1000 | 10 to 100 |
| COc1ccc(OC)c(C[C@H](C)Nc2cc[nH]c(=O)c2-c2nc3cc4c(cc3[nH]2)CN(CCN2CCCC2)C4=O)c1 | > 1000 | 250 to 1000 | 100 to 250 |
| COc1cc(F)c(F)c(C[C@H](C)Nc2cc[nH]c(=O)c2-c2nc3cc4c(cc3[nH]2)CN(CCN2CCCC2)C4=O)c1OC | > 1000 | 250 to 1000 | 10 to 100 |
| CCc1ccccc1C[C@H](C)Nc1cc[nH]c(=O)c1-c1nc2cc3c(cc2[nH]1)CN(CCN1CCCC1)C3=O | > 1000 | 250 to 1000 | 10 to 100 |
| CN1CCC(N2C(=O)c3cc4nc(-c5c(N[C@@H](CO)Cc6ccccc6)cc[nH]c5=O)[nH]c4cc3C2=O)CC1 | > 1000 | > 1000 | 100 to 250 |
| CNCCN1Cc2cc3[nH]c(-c4c(N[C@@H](C)Cc5cc(F)ccc5C)cc[nH]c4=O)nc3cc2C1=O [drawing 348] | 10 to 100 |  | 250 to 1000 |
